Key:
Format in all cases: in vivo, mouse
[1] = test system: adipose cells of the white adipose tissue; experiment: Diabetes model mice: size of adipose cells of the white adipose tissue; conditions: 200 mg/kg of nobiletin
C57BL/6J-ob/ob mice = experiment: Diabetes model mice: oral glucose tolerance test (OGTT); conditions: nobiletin 200 mg/kg/day, Pioglitazone 30 mg/kg/day
Experimental: The oral glucose tolerance test (OGTT) for the diabetes model mice (ob/ob) to which the nobiletin and others were administrated was subjected to the glucose tolerance test for studying the effects.
From 4 weeks after the start of the administration, the mice in each group were fasted for 16 hours, and then they were administrated 2 g/kg body weight of glucose per os. After the administration of glucose, […] of blood was collected from the tail vein at the time point of 0, 30, 60 and 120 minutes. Collected blood was centrifuged at 4° C., 3,000×g, for 15 minute to obtain plasma (n=10). The blood glucose level was measured as the same as that described in the example 1.

male C57BL/6 mice [2] = experiment: Nobiletin, obesity-induced mice: body weight and ingestion amount; conditions: for Body weight: HFD obesity-induced mice; for Ingestion amount, [Final Average]: average of 5 weeks; for Body weight, [Final gain]: gained amount during 0 to +5 weeks; for Ingestion amount: per mouse in 24 hrs
Description: Six weeks age of male C57BL/6 mice were preliminary reared for 1 week (−9 to −8 week); then classified into 4 groups (n=9 in each group). LFD was given to one group and HFD was given to other 3 groups for 8 weeks (−8 to +5 week). From 8 weeks (15 week age) to 13 weeks, each group was given the following agents per os for 5 weeks in everyday. In below, the LFD administration group was defined that they ingested LFD; the HFD administration group is defined that they ingested the HFD without nobiletin. The compositions of the LFD and HFD are the same as those used in the Example 3.
To both of the LFD administration group and the HFD administration group, 0.3% CMC aqueous solution was given at the amount of 0.01 mL/g body weight. […] The group to which nobiletin was given at the amount of 10 mg/kg/day was referred to as “No10 administration group; the abbreviated as HFD+No 10” and another group to which nobiletin was given at the amount of 100 mg/kg/day was referred to as “No 100 administration group; abbreviated as HFD+No 100”. The schedule of the feed ingestion and administration of the agent for the above-mentioned 4 groups were schematically shown in FIG. 12A.
In the table, [Final gain] means gained amount during 0 to +5 weeks. […] By this, it was shown that nobiletin has the effect to suppress the body weight gain after the obesity induction by ingesting the high fat diet.
The ingestion amount of each mouse was measured everyday from 1 to 8 day (0 week) in the beginning of the agent administration. The ingested amount in 24 hrs was measured per cage, and then the average ingestion amount (g) per mouse was calculated. The date of day 0 means that of the previous day of the administration beginning. After 2 weeks from the administration, it was measured twice a week. [Final average] means the average of 5 weeks.

male C57BL/6 mice [3] = experiment: Nobiletin, obesity-induced mice: blood lipid, glucose and adiponectin level; conditions: HFD; for Adipo *2 (Relative level of adiponectin): blood adiponectin to total weight of the white adipose tissue
Experimental: After the completion of the experiment, the levels of the blood neutral fat, total cholesterol, glucose, and adiponectin in the fating state, and those of the blood neutral fat, total cholesterol, and glucose in satiety state were determined as the same as those in the Example 1. In the table 22, relative adiponectin level means the ratio of specific level of the blood adiponectin to the total weight of the white adipose tissue.

[4] = test system: adipose cells of the white adipose tissue; experiment: Nobiletin, obesity-induced mice: size of the adipose cells; conditions: epididymis adipose tissue sections
Description: After the completion of the experiment, the adipose tissue of mice epididymis was excised to prepare sections to stain by using both of hematoxylin and eosin (n=9). These sections were observes under the microscope with 200-fold magnification to compare cell seizes in the field of photomicroscope vision.

male C57BL/6 mice [5] = experiment: Nobiletin, obesity-induced mice: glucose tolerance test (OGTT); conditions: for Blood glucose level (OGTT): HFD
Experimental: The sugar tolerance test was carried out as the same as those done in the example 2 (n=9).

[6] = nobiletin 10 mg/kg/day p.o. 5 weeks
[7] = nobiletin 100 mg/kg/day p.o. 5 weeks
[8] = nobiletin 10 mg/kg/day p.o., HFD
[9] = nobiletin 100 mg/kg/day p.o., HFD
[10] = Fasting state, nobiletin 10 mg/kg/day p.o. 5 weeks
[11] = Fasting state, nobiletin 100 mg/kg/day p.o. 5 weeks
[12] = Satiety state, nobiletin 10 mg/kg/day p.o. 5 weeks
[13] = Satiety state, nobiletin 100 mg/kg/day p.o. 5 weeks

COc1ccc(-c2cc(=O)c3c(OC)c(OC)c(OC)c(OC)c3o2)cc1OC [nobiletin]
shrinking of enlarged adipose cells of the white adipose tissue [1]: fails to shrink the adipose cells | Blood glucose level (OGTT) (C57BL/6J-ob/ob mice; 0 min after 2 g/kg glucose p.o.): 145.26 ± 7.56 mg/dL | Blood glucose level (OGTT) (C57BL/6J-ob/ob mice; 30 min after 2 g/kg glucose p.o.): 304.41 ± 20.23 mg/dL | Blood glucose level (OGTT) (C57BL/6J-ob/ob mice; 60 min after 2 g/kg glucose p.o.): 207.47 ± 11.56 mg/dL | Blood glucose level (OGTT) (C57BL/6J-ob/ob mice; 120 min after 2 g/kg glucose p.o.): 192.57 ± 9.01 mg/dL | Body weight (male C57BL/6 mice [2]; [6]): 33.14 ± 1.02 g | Body weight (male C57BL/6 mice [2]; nobiletin 10 mg/kg/day p.o., 0 weeks after administration): 31.07 ± 0.78 g | Body weight (male C57BL/6 mice [2]; nobiletin 10 mg/kg/day p.o., 1 week): 31.10 ± 0.72 g | Body weight (male C57BL/6 mice [2]; nobiletin 10 mg/kg/day p.o., 2 weeks): 32.10 ± 0.85 g | Body weight (male C57BL/6 mice [2]; nobiletin 10 mg/kg/day p.o., 3 weeks): 33.01 ± 1.01 g | Body weight (male C57BL/6 mice [2]; nobiletin 10 mg/kg/day p.o., 4 weeks): 32.58 ± 0.97 g | Body weight (male C57BL/6 mice [2]; [7]): 31.88 ± 0.68 g | Body weight (male C57BL/6 mice [2]; nobiletin 100 mg/kg/day p.o., 0 weeks after administration): 31.21 ± 0.60 g | Body weight (male C57BL/6 mice [2]; nobiletin 100 mg/kg/day p.o., 1 week): 29.93 ± 0.52 g | Body weight (male C57BL/6 mice [2]; nobiletin 100 mg/kg/day p.o., 2 weeks): 30.61 ± 0.60 g | Body weight (male C57BL/6 mice [2]; nobiletin 100 mg/kg/day p.o., 3 weeks): 31.62 ± 0.62 g | Body weight (male C57BL/6 mice [2]; nobiletin 100 mg/kg/day p.o., 4 weeks): 31.28 ± 0.59 g | Ingestion amount, [Final Average] (male C57BL/6 mice [2]; [8]): 2.58 ± 0.1 g | Ingestion amount, [Final Average] (male C57BL/6 mice [2]; [9]): 2.61 ± 0.08 g | Body weight, [Final gain] (male C57BL/6 mice [2]; [8]): 2.08 ± 0.69 g | Body weight, [Final gain] (male C57BL/6 mice [2]; [9]): 0.67 ± 0.37 g | Ingestion amount (male C57BL/6 mice [2]; day 0 (previous day of administration beginning), nobiletin 10 mg/kg/day group): 2.36 ± 0.04 g | Ingestion amount (male C57BL/6 mice [2]; day 0 (previous day of administration beginning), nobiletin 100 mg/kg/day group): 2.36 ± 0.04 g | Ingestion amount (male C57BL/6 mice [2]; day 1, nobiletin 10 mg/kg/day p.o., HFD): 2.28 ± 0.13 g | Ingestion amount (male C57BL/6 mice [2]; day 1, nobiletin 100 mg/kg/day p.o., HFD): 1.57 ± 0.09 g | Ingestion amount (male C57BL/6 mice [2]; day 2, nobiletin 10 mg/kg/day p.o., HFD): 1.85 ± 0.19 g | Ingestion amount (male C57BL/6 mice [2]; day 2, nobiletin 100 mg/kg/day p.o., HFD): 1.71 ± 0.13 g | Ingestion amount (male C57BL/6 mice [2]; day 3, nobiletin 10 mg/kg/day p.o., HFD): 1.85 ± 0.19 g | Ingestion amount (male C57BL/6 mice [2]; day 3, nobiletin 100 mg/kg/day p.o., HFD): 1.71 ± 0.13 g | Ingestion amount (male C57BL/6 mice [2]; day 4, nobiletin 10 mg/kg/day p.o., HFD): 2.27 ± 0.28 g | Ingestion amount (male C57BL/6 mice [2]; day 4, nobiletin 100 mg/kg/day p.o., HFD): 1.83 ± 0.15 g | Ingestion amount (male C57BL/6 mice [2]; day 5, nobiletin 10 mg/kg/day p.o., HFD): 1.78 ± 0.21 g | Ingestion amount (male C57BL/6 mice [2]; day 5, nobiletin 100 mg/kg/day p.o., HFD): 1.59 ± 0.20 g | Ingestion amount (male C57BL/6 mice [2]; day 6, nobiletin 10 mg/kg/day p.o., HFD): 2.36 ± 0.14 g | Ingestion amount (male C57BL/6 mice [2]; day 6, nobiletin 100 mg/kg/day p.o., HFD): 2.04 ± 0.09 g | Ingestion amount (male C57BL/6 mice [2]; day 7, nobiletin 10 mg/kg/day p.o., HFD): 2.99 ± 0.07 g | Ingestion amount (male C57BL/6 mice [2]; day 7, nobiletin 100 mg/kg/day p.o., HFD): 2.62 ± 0.12 g | Ingestion amount (male C57BL/6 mice [2]; day 8, nobiletin 10 mg/kg/day p.o., HFD): 2.12 ± 0.32 g | Ingestion amount (male C57BL/6 mice [2]; day 8, nobiletin 100 mg/kg/day p.o., HFD): 2.43 ± 0.03 g | Blood level, Adipo *1 (adiponectin) (male C57BL/6 mice [3]; [10]): 7.19 ± 0.82 µg/mL | Blood level, Glucose (male C57BL/6 mice [3]; [10]): 157.47 ± 10.54 mg/dL | Blood level, T-CHO (male C57BL/6 mice [3]; [10]): 109.88 ± 9.09 mg/dL | Blood level, TG (male C57BL/6 mice [3]; [10]): 79.99 ± 8.04 mg/dL | Blood level, Adipo *1 (adiponectin) (male C57BL/6 mice [3]; [11]): 6.96 ± 0.99 µg/mL | Blood level, Glucose (male C57BL/6 mice [3]; [11]): 128.49 ± 5.59 mg/dL | Blood level, T-CHO (male C57BL/6 mice [3]; [11]): 131.55 ± 8.63 mg/dL | Blood level, TG (male C57BL/6 mice [3]; [11]): 78.69 ± 6.57 mg/dL | Blood level, Glucose (male C57BL/6 mice [3]; [12]): 224 ± 24.67 mg/dL | Blood level, T-CHO (male C57BL/6 mice [3]; [12]): 147.47 ± 10.40 mg/dL | Blood level, TG (male C57BL/6 mice [3]; [12]): 141.05 ± 12.25 mg/dL | Blood level, Glucose (male C57BL/6 mice [3]; [13]): 224.76 ± 21.88 mg/dL | Blood level, T-CHO (male C57BL/6 mice [3]; [13]): 169.24 ± 6.03 mg/dL | Blood level, TG (male C57BL/6 mice [3]; [13]): 100.80 ± 14.95 mg/dL | Adipo *2 (Relative level of adiponectin) (male C57BL/6 mice [3]; Fasting state, nobiletin 10 mg/kg/day p.o.): 3.87 ± 0.86 µg/mL/g | Adipo *2 (Relative level of adiponectin) (male C57BL/6 mice [3]; Fasting state, nobiletin 100 mg/kg/day p.o.): 5.34 ± 0.97 µg/mL/g | adipose cell size compared with HFD group [4, 6]: not large difference | adipose cell size compared with HFD group [4, 7]: became smaller | area under the curve (AUC) of blood glucose in OGTT, compared with HFD administration group (male C57BL/6 mice [5]; 0 to 120 minutes, nobiletin 10 mg/kg/day p.o.): no significant difference | area under the curve (AUC) of blood glucose in OGTT, compared with HFD group (male C57BL/6 mice [5]; 0 to 120 minutes, nobiletin 100 mg/kg/day p.o., p<0.05): significant difference | Blood glucose level (OGTT) (male C57BL/6 mice [5]; 0 minute after glucose, nobiletin 10 mg/kg/day p.o.): 157.47 ± 10.54 mg/dL | Blood glucose level (OGTT) (male C57BL/6 mice [5]; 0 minute after glucose, nobiletin 100 mg/kg/day p.o.): 128.49 ± 5.59 mg/dL | Blood glucose level (OGTT) (male C57BL/6 mice [5]; 15 minutes after glucose, nobiletin 10 mg/kg/day p.o.): 384.94 ± 17.66 mg/dL | Blood glucose level (OGTT) (male C57BL/6 mice [5]; 15 minutes after glucose, nobiletin 100 mg/kg/day p.o.): 340.91 ± 16.88 mg/dL | Blood glucose level (OGTT) (male C57BL/6 mice [5]; 30 minutes after glucose, nobiletin 10 mg/kg/day p.o.): 342.5 ± 27.08 mg/dL | Blood glucose level (OGTT) (male C57BL/6 mice [5]; 30 minutes after glucose, nobiletin 100 mg/kg/day p.o.): 334.84 ± 16.98 mg/dL | Blood glucose level (OGTT) (male C57BL/6 mice [5]; 60 minutes after glucose, nobiletin 10 mg/kg/day p.o.): 271.76 ± 31.64 mg/dL | Blood glucose level (OGTT) (male C57BL/6 mice [5]; 60 minutes after glucose, nobiletin 100 mg/kg/day p.o.): 267.27 ± 18.22 mg/dL | Blood glucose level (OGTT) (male C57BL/6 mice [5]; 120 minutes after glucose, nobiletin 10 mg/kg/day p.o.): 217.1 ± 35.92 mg/dL | Blood glucose level (OGTT) (male C57BL/6 mice [5]; 120 minutes after glucose, nobiletin 100 mg/kg/day p.o.): 178.45 ± 15.37 mg/dL

Source: US20120196927A1, “PROPHYLACTIC AND/OR THERAPEUTIC AGENT FOR METABOLIC SYNDROME” (priority 2009, published 2012)
